The structures appear in SMILES notation.

For one experiment, the system named is BMDC. The experiment is described as follows: FITC-dextran uptake (macropinocytosis) by BMDC. It is filed as cell-based, C57BL/6 mice. The note with it: LPS 50 ng/ml, FITC-dextran 1 mg/ml; Akt-i at 1 μM. As for the experimental part:
DCs were generated from the bone marrow or the spleen of C57BL/6 mice as previously described. Briefly, bone marrow cells were cultured for 7 days at 37°C, 5% (v/v) CO2 in complete RPMI medium supplemented with 10 ng/ml recombinant granulocyte–macrophage colony-stimulating factor (GM-CSF; Peprotech). Spleen cells were cultured for 14 days at 37°C, 5% CO2 in complete RPMI containing 10 ng/ml GM-CSF and 1 ng/ml TGFβ (transforming growth factor-β; R&D Systems). NIH3T3 cells (European Cell Culture Collection) were cultured in DMEM (Dulbecco's modified Eagle's medium) supplemented with glutamine, penicillin, streptomycin and 10% (v/v) calf serum (Invitrogen).
FITC-dextran uptake was measured as described. […] In some experiments, cells were pre-treated with 1 μM Akt-i (Merck) for 30 min. Cells were left unstimulated or were stimulated with 50 ng/ml LPS for 20 min at 37°C followed by the addition of 1 mg/ml FITC dextran (Invitrogen) for 10 min at 37°C. Cells were washed four times at 4°C in PBS supplemented with 2% (v/v) FCS (foetal calf serum) and then stained with APC (allophycocyanin)-labelled anti-CD11c antibody (BD biosciences). FITC dextran uptake was measured on an FACS Calibur (BD biosciences).

In the next experiment the target is T1, Rsk2 (Mus musculus, UniProt P18654).
T1 construct: recovered on streptavidin beads following desthiobiotin-ATP labelling of DC lysates including Rsk2, Erk1/2 and p38; endogenous in cells; host or cells: mouse spleen-derived dendritic cells (SDC), lysate
The experiment is described as follows: Desthiobiotin-ATP probe capture on streptavidin beads, Western blot. The experiment is classed as binding, C57BL/6 mice. The note with it: 10 μM inhibitor, DC lysate. In general terms: In western blotting, separated proteins are transferred to a membrane and probed.

The next experiment concerns the target T2, GST-Lok (Homo sapiens, UniProt O94804).
T2 construct: GST; purchased DSTT
The experiment is described as follows: Kinase assay for recombinant Lok. It is filed as biochemical. The note with it: 25 μM ATP, 100 μM AXLTIDE substrate.

The next experiment addresses T3, Erk1/2 (Mus musculus, UniProt P63085).
T3 construct: recovered on streptavidin beads following desthiobiotin-ATP labelling of DC lysates including Rsk2, Erk1/2 and p38; endogenous in cells; host or cells: mouse spleen-derived dendritic cells (SDC), lysate
The experiment in a line: Desthiobiotin-ATP probe capture on streptavidin beads, Western blot. It is filed as binding, C57BL/6 mice. The note with it: 10 μM inhibitor, DC lysate. As for the experimental part:
(§1) SDC were cultured for at least 14 days in RPMI (without arginine and lysine, custom-made by Biosera) containing 10% dialysed FCS (Hyclone) supplemented with 84 mg/l of L-arginine (Sigma) and 40 mg/l L-lysine (Sigma) for the 'light' medium or 84 mg/l of […] or ^13C10 and 40 mg/l […] (Cambridge Isotope Laboratory) for the 'heavy' medium. Equal numbers (2×10^7) of 'light' or 'heavy' labelled SDCs were incubated in RPMI containing 0.5% FCS for 3 h in 15 cm dishes. The cells were lysed in the lysis buffer provided in the kit (Pierce). […] Labelling with the desthiobiotin ATP probe, and precipitation with streptavidin beads were performed according to the manufacturer's instructions (Pierce kinase enrichment kit or ActivXTM).

In another experiment the test system is p38. Described as above. The experiment is classed as binding, C57BL/6 mice. The settings on record: 10 μM inhibitor, DC lysate. As for the experimental part: as §1
The next experiment concerns the target T4, Slk (Mus musculus, UniProt O54988).
T4 construct: Mst1, Lok and Slk were immunoprecipated from 150 μg, 850 μg and 1 mg of cell lysates respectively; endogenous in cells; host or cells: mouse bone-marrow-derived dendritic cells (BMDC), immunoprecipitate
The experiment is described as follows: Activity of Slk immunoprecipitated from BMDC. The settings on record: immunoprecipitates treated with 1 μM D1870; resting and LPS-stimulated DC. It is filed as biochemical, C57BL/6 mice. As for the experimental part: Equal numbers of BMDC (1×10^7/dish) were incubated in 15 cm dishes in RPMI supplemented with 0.3% FCS for 3 h at 37°C then incubated for 30 min with or without 50 ng/ml LPS. The cells were washed once in cold PBS and lysed in the lysis buffer described above. Mst1, Lok and Slk were immunoprecipated from 150 μg, 850 μg and 1 mg of cell lysates respectively with 2 μg of anti-MST1 (Cell Signalling), anti-Slk (Bethyl) or anti-Lok (Bethyl) or control IgG (Santa Cruz Biotech) coupled to G-protein Sepharose (Amersham) for 1 h at 4°C. […] Kinase assays were performed as described above.
A combination of SILAC and nucleotide acyl
Alexander J. EDGAR*, Matthias TROST†, Colin WATTS*1 and Rossana ZARU*1
*Division of Cell Signalling and Immunolog y, University of Dundee, Dow Street, Dundee DD1 5EH, U.K., and †MRC Protein Phosphor ylation and Ubiquitylation Unit, College of Life Sciences, University of Dundee, Dow Street, Dundee DD1 5EH, U.K.
Supplementary Table S1 is available at http://www.bioscirep.
Mst1, Lok and Slk activities in DC either unstimulated or stimulated with LPS (50 ng/ml) for 30 min at 37 ◦ C. Immuno- […]
of triplicate stimulations. *P < 0.05, **P < 0.01, ***P < 0.001, ns not signiﬁcant.
1 Correspondence may be addressed to either of these authors (email c.watts@dundee.ac.uk or r.zaru@dundee.ac.uk). […]

T1 sequence (P18654 whole entry): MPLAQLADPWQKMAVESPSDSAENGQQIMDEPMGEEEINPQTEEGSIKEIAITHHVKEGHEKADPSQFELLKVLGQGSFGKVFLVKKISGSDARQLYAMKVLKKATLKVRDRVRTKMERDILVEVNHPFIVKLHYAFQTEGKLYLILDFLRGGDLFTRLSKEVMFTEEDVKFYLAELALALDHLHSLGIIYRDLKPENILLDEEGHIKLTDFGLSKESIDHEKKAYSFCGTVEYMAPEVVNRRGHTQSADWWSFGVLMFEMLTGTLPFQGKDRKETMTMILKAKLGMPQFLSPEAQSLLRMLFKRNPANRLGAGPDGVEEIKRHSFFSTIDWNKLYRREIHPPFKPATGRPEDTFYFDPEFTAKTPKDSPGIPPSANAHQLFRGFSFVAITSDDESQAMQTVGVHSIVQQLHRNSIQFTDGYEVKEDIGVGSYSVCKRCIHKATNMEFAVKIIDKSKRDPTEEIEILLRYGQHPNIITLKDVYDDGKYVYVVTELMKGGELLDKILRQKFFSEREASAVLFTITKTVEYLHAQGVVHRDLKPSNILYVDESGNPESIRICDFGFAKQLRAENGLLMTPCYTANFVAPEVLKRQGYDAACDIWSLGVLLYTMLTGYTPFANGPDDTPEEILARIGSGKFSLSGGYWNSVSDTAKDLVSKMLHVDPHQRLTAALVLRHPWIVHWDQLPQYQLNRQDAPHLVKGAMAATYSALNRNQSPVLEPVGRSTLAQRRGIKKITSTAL
T3 sequence (P63085 2-358): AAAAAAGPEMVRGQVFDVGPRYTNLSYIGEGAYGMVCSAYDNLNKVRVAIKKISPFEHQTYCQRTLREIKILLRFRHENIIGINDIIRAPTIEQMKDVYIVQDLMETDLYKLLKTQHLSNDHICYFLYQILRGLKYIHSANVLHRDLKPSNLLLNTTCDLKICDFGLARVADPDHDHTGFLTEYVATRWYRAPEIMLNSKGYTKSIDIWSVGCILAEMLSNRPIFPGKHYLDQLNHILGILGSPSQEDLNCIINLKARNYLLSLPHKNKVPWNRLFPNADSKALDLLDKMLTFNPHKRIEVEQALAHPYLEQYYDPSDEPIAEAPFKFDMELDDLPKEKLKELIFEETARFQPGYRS
T4 sequence (O54988 whole entry): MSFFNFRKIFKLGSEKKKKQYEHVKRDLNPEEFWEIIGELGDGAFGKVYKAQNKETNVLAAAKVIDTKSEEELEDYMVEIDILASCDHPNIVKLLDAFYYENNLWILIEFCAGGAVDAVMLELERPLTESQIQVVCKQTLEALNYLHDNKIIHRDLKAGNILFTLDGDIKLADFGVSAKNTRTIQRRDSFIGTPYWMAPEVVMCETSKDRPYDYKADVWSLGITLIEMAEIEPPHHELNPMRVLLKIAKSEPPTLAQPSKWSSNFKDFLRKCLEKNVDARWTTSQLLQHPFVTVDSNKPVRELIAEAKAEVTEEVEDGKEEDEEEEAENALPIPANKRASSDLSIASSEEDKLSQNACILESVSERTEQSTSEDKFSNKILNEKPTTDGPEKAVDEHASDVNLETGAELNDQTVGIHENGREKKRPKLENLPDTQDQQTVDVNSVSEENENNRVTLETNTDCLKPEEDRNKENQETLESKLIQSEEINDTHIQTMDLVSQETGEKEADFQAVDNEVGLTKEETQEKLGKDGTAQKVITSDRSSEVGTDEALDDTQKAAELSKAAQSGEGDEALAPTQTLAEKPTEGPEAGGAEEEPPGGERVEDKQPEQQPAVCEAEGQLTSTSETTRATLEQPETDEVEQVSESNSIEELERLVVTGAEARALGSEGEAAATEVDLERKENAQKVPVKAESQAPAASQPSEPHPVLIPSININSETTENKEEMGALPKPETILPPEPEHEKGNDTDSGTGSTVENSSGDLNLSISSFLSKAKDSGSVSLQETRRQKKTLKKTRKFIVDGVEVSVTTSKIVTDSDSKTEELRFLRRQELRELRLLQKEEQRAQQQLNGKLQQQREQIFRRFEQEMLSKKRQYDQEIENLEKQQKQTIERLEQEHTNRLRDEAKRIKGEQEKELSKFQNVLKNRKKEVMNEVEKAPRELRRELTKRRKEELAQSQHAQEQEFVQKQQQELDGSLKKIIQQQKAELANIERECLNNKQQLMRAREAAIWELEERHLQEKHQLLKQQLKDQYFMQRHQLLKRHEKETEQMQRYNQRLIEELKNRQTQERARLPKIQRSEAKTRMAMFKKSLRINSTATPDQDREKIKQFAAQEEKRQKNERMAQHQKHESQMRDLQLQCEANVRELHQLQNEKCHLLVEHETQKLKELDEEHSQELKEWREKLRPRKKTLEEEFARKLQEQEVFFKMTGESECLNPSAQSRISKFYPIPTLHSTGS
T2 sequence (O94804 whole entry): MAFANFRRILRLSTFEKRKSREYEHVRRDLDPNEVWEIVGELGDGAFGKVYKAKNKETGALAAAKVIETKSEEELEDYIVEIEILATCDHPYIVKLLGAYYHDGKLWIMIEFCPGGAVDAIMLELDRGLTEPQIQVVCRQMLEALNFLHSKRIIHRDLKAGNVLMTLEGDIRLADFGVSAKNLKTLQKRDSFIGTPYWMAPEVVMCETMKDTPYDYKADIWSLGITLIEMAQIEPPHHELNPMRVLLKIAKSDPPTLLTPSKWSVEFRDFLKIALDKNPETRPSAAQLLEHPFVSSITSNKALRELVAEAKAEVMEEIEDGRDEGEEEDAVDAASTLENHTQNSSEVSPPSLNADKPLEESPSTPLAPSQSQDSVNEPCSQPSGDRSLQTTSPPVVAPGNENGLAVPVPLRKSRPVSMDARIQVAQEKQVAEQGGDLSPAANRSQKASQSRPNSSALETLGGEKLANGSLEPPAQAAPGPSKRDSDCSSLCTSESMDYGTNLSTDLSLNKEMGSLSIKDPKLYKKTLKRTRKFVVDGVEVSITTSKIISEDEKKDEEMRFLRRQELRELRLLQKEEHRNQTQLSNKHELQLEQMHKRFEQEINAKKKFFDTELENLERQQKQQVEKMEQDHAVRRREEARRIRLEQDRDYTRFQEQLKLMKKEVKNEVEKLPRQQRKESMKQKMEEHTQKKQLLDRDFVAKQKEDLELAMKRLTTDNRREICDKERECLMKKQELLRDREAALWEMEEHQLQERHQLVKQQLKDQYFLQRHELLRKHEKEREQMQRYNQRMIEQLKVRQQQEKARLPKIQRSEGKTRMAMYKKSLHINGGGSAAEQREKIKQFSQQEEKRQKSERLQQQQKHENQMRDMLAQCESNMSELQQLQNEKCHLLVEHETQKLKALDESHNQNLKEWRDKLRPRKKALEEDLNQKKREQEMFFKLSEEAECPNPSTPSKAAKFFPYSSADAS
Protocol for GST-Lok: The kinase reaction for Lok and Slk was supplemented with 12.5 mM sodium glycerophosphate and 0.25 mM sodium orthovanadate. The reactions were incubated for 15–20 min at 30°C then terminated and analysed as described previously [14].
Protocol for Rsk2: SDC were cultured for at least 14 days in RPMI (without arginine and lysine, custom-made by Biosera) containing 10% dialysed FCS (Hyclone) supplemented with 84 mg/l of L-arginine (Sigma) and 40 mg/l L-lysine (Sigma) for the ‘light’ medium or 84 mg/l of L-arginine ^13C6 or ^13C10 and 40 mg/l L-lysine ^13C6 (Cambridge Isotope Laboratory) for the ‘heavy’ medium. Equal numbers (2×10^7) of ‘light’ or ‘heavy’ labelled SDCs were incubated in RPMI containing 0.5% FCS for 3 h in 15 cm dishes. The cells were lysed in the lysis buffer provided in the kit (Pierce). […] Labelling with the desthiobiotin ATP probe, and precipitation with streptavidin beads were performed according to the manufacturer's instructions (Pierce kinase enrichment kit or ActivX™). Equal amount of streptavidin precipitates were separated by electrophoresis as described above and probed with antibodies against Rsk2, Lok (Bethyl), Slk (Bethyl), PLK1 (Calbiochem), p38, Erk2 and Mst1 (from Cell Signaling).

In the case of `CC(C)CCN1c2nc(Nc3cc(F)c(O)c(F)c3)ncc2N(C)C(=O)C1C` (stereo not drawn) [D1870, BI-D1870], the LPS-mediated dextran uptake entry with BMDC was “completely blocked”. In addition, the “capture of Rsk2 on streptavidin beads” value on Rsk2 is given as “blocked”. Also, on GST-Lok, the IC50 (usually the point on the concentration scale where inhibition reaches its midpoint) was 500 nM. Moreover, the “capture of Erk1/2 on streptavidin beads” value on Erk1/2 is reported as “not Erk1/2 or p38, was blocked”. Moreover, the “capture of p38 on streptavidin beads” value with p38 is listed as “not Erk1/2 or p38, was blocked”. The “kinase activity of Slk immunoprecipitated from DC” value on Slk is “significantly blocked”.

The values above are taken from PMC3908613 (Bioscience Reports, 2014).
